Publication PMC7198601, “Side chain effect in the modulation of αvβ3/α5β1 integrin activity via clickable isoxazoline-RGD-mimetics: development of molecular delivery systems” (Scientific Reports, 2020)
Each block holds one molecule with its values, some of them ahead of it.

Key:
[1] = tested on: HEK293 + αvβ3 cells; experiment: Confocal microscopy of FITC-conjugate internalization in HEK293 + αvβ3 cells; assay type: cell-based, human; conditions: HEK293 + αvβ3 cells not expressing α5β1, 0.1–1 μM
Method: (§1) Figure 5 Confocal microscopy images of HEK293 or HEK293 + α5, HEK293 + αvβ3 and K562 cells treated with compound 31 (Cpd 31). Cells were exposed to compound 31 (0.1–1 μM) or its vehicle for 60 minutes at 4 °C and thereafter cells were moved to 37 °C for 15 minutes to promote integrin internalization and fixed as described in Methods. a) Compound 31, conjugated with FITC was able to enter the cells in α5 integrin-dependent manner: it was internalized in HEK293 + α5 but not in HEK293 cells. Right Panels: HEK293 cells not expressing α5 integrin subunit. Left Panels: HEK293 + α5. b) Concentration-dependent internalization of compound 31 was observed also in K562 cancer cells, endogenously expressing α5β1 integrin. […] In the left column of each panel green (FITC) fluorescence was shown, whereas in right one green and blue (DAPI) signals were merged. Nuclei were counterstained with DAPI. Scale bar: 30 µm. d) Compound 31 internalization was evaluated according to green fluorescence intensity in the cells and is reported in the graph. […]
(§2) Specimens were embedded in Mowiol and analyzed using a Nikon C1s confocal laser-scanning microscope, equipped with a Nikon PlanApo 60×, 1.4-NA oil immersion lens. […]
(§3) For internalization analysis of ligand 31, the mean fluorescence intensity was related to the background; the relative fluorescence intensity is reported in the graph in Fig. 5.

[2] = biological target: T1, α5β1 integrin (Homo sapiens, UniProt P05556+P08648); experiment: Cell adhesion assay: K562 cells to immobilized fibronectin (α5β1 integrin-mediated)
Method: (§8) The ability of the synthesized racemic ligands to inhibit the adhesion of K562 cells (human erythroleukemic cells, expressing α5β1 integrin) or SK-MEL-24 cells (human malignant melanoma cells, expressing αvβ3 integrin) to immobilized fibronectin was evaluated[29]. […] In these experiments, the cells were seeded onto plates coated with fibronectin and allowed to adhere before quantitation of the number of adherent cells, in presence of increasing concentrations of the compounds.
(§9) SK-MEL-24 (American Tissue Culture Collection, ATCC, Rockville, MD) were routinely grown in minimum essential medium (MEM, Cambrex, Walkersville, MD) supplemented with 10% fetal bovine serum (FBS), nonessential amino acids, and sodium pyruvate. K-562 (ATCC, Rockville, MD) were maintained as a stationary suspension culture in RPMI-1640 and L-glutamine with 10% FBS (Invitrogen (Carlsbad, CA). Cells were kept at 37 °C in a 5% CO2 humidified atmosphere. Forty hours before experiments, K-562 were treated with 25 ng/mL PMA (Sigma-Aldrich SRL, Milan, Italy) to induce differentiation and to increase expression of cell surface antigens[50].
(§10) Plates (96 wells) (Corning Costar, Celbio, Milan,Italy) were coated by passive adsorption with fibronectin (10 µg/mL) or poly-L-lysine (0.002%) (Sigma-Aldrich SRL) overnight at 4 °C. Cells were counted with a haemocytometer and pre-incubated with different concentrations of each compound or with the vehicle (methanol) for 30 min at room temperature to reach a ligand-receptor equilibrium. Stock solutions (10^–2 M) of the assayed compounds were prepared in phosphate-buffered saline (PBS). […] This product is a chromogenic substrate for β-N-acetylglucosaminidase that is transformed in 4-nitrophenol whose absorbance can be measured at 405 nm. As previously described[51], there is a linear correlation between absorbance and enzymatic activity. Therefore, it is possible to identify the number of adherent cells among treated wells, interpolating the absorbance values of unknowns in a calibration curve. The reaction was blocked by addition of 100 µL of a stopping solution [50 µM glycine and 5 µM EDTA (pH 10.4)], and the plates were read in an EnSpire Multimode Plate Reader (PerkinElmer, Waltham, MA, USA). Experiments were carried out in quadruplicate and repeated at least three times. Data analysis and IC50/EC50 values were calculated using Graph-Pad Prism 5.0 (GraphPad Software, San Diego, CA).

[3] = tested on: HEK293 cells; experiment: Confocal microscopy of FITC-conjugate internalization in HEK293 cells not expressing α5; assay type: cell-based, human; conditions: HEK293 cells that do not express α5 integrin, 0.1–1 μM
Method: (§4) In order to visualize the localization of isoxazolines inside the cells and to explore the possibility to use them as shuttles for selective delivery of therapeutic payloads and diagnostics, compound 31 was synthesized conjugating 17b with FITC, as described above. […] In addition, the internalization of compound 31 was concentration-dependent: at a higher concentration (1 μM) it accumulated inside the cells in a greater extent.
(§5) Figure 5 Confocal microscopy images of HEK293 or HEK293 + α5, HEK293 + αvβ3 and K562 cells treated with compound 31 (Cpd 31). […] In the left column of each panel green (FITC) fluorescence was shown, whereas in right one green and blue (DAPI) signals were merged. […] Scale bar: 30 µm. d) Compound 31 internalization was evaluated according to green fluorescence intensity in the cells and is reported in the graph. […]
as §2, §3

[4] = tested on: HEK293 + α5 cells; experiment: Confocal microscopy of FITC-conjugate internalization in HEK293 + α5 cells; assay type: cell-based, human; conditions: 0.1–1 μM
Method: as §4, §5, §2, §3

[5] = tested on: K562 cells; experiment: Confocal microscopy of FITC-conjugate internalization in K562 cells; assay type: cell-based, human
Method: as §1, §2, §3

[6] = biological target: αvβ3 integrin (Homo sapiens, UniProt P05106+P06756); experiment: Cell adhesion assay: SK-MEL-24 cells to immobilized fibronectin (αvβ3 integrin-mediated)
Method: as §8, §9, §10

[7] = biological target: T1, α5β1 integrin; experiment: α5β1 integrin internalization by confocal microscopy in HEK293 + α5-EGFP cells; assay type: cell-based
Text: Integrin trafficking is an important mechanism employed by cells to regulate integrin–extracellular matrix interactions, and thus cellular signalling, during processes such as cell migration and invasion. α5β1 integrin is internalized, trafficked to recycling endosomes and then recycled to the plasma membrane[43],[44]. Membrane trafficking pathways influence α5β1’s ability to promote invasion and metastasis[45],[46]. […]
HEK293 cells (not expressing α5 but endogenously expressing β1 integrin[47],[48] were plated in 6 well plates and at 50–60% confluence were transiently transfected with α5-EGFP plasmid using Lipofectamine2000 transfection reagent (LifeTechnologies). After 48 h from transfection, HEK293 + α5-EGFP cells were assessed to verify integrins expression by flow cytometry (data not shown). α5-EGFP integrin plasmid was a kind gift from Michael Davidson (Addgene plasmid #56423). HEK293 + α5-EGFP cells were treated at 4 °C with fibronectin (10 µg/ml) or the agonist 24 (1 µM) in MEM for 1 hour. Cells exposed to the antagonist 17b (1 µM), before the addition of fibronectin, were pre-incubated with the compound for 20 minutes at 4 °C. […]
as §2

[8] = tested on: α5β1 integrin-mediated phosphorylation of ERK1/2; experiment: α5β1 integrin-mediated ERK1/2 phosphorylation in K562 cells (Western blot); assay type: cell-based, human
Method: The mechanism by which components of extracellular matrix generate intracellular signalling through integrins requires indeed an increased phosphorylation of cytoplasmatic second messengers. Phosphorylation of ERK1/2 plays a central role in fibronectin-mediated survival signalling through integrins: in fact, cell adhesion activates ERK1/2 by binding of α5β1 integrins at the cell surface to extracellular matrix proteins such as fibronectin. The experiment was performed by serum-starving K562 cells in RPMI-1640 containing 1% FBS for 16 h; thereafter, they were preincubated with compound 17b, 24 (10^−7–10^−9 M) or the vehicle for 60 minutes and then plated for 60 minutes on fibronectin.
Figure 2 (a) Cropped blots related to the effect of compounds 17b and 24 on α5β1 integrin-mediated phosphorylation of ERK1/2 in K562 cells. Cells were serum-starved in RPMI-1640 containing 1% FBS for 16 h; then cells were preincubated with different concentrations of the antagonist 17b (10^−7–10^−9 M) or its vehicle for 1 h in suspension and then were allowed to adhere for 1 h on fibronectin (FN). […] Thereafter cells were lysed and lysates were analysed in Western blot using an antibody directed against phosphorylated ERK1/2 (pERK1/2) or total ERK1/2 (totERK1/2). […]
K562 cells were incubated in RPMI-1640 with 1% FBS for 16 h. […] Digital images were acquired and analyzed following previously reported methods.

[9] = Stability in bovine serum (LC-MS); assay type: in vitro ADME
Method: (§6) LC-MS injections were performed after 30 min from the preparation of the samples and then after each 1.5 hours, following the experiments for 14 h (Fig. 4). […] As a consequence of the spontaneous aromatization of A, also an increasing amount of B was observed after a short period. The aromatised form B was tested to evaluate its effect on the activity of selected integrins but, as consequence of the absence of a crucial pharmacophore, it was not active. This behaviour doesn’t represent a big issue since strong basic conditions are quite unusual in physiological environment. In fact under stress conditions with a large excess of base, the decomposition of 17b to A occurred in few minutes.
(§7) Figure 4 Stability of 17b in neutral, basic, acidic and physiological conditions and its possible degradation pathway. Conditions: 17b (0.1 mmol) in 300 µl of solvent (water or bovine serum). 5 eq of LiOH·H2O or HCl 1 M were added.

[10] = Stability in water at neutral, basic and acidic pH (LC-MS); assay type: physicochemical; conditions: for loss of product: water, after several hours
Method: as §6, §7

[11] = tested on: selected integrins; experiment: Effect of the aromatised degradation product on the activity of selected integrins
Method: as §6

[12] = K562 cell adhesion to fibronectin

T1 sequence (P08648 42-894 limits assumed): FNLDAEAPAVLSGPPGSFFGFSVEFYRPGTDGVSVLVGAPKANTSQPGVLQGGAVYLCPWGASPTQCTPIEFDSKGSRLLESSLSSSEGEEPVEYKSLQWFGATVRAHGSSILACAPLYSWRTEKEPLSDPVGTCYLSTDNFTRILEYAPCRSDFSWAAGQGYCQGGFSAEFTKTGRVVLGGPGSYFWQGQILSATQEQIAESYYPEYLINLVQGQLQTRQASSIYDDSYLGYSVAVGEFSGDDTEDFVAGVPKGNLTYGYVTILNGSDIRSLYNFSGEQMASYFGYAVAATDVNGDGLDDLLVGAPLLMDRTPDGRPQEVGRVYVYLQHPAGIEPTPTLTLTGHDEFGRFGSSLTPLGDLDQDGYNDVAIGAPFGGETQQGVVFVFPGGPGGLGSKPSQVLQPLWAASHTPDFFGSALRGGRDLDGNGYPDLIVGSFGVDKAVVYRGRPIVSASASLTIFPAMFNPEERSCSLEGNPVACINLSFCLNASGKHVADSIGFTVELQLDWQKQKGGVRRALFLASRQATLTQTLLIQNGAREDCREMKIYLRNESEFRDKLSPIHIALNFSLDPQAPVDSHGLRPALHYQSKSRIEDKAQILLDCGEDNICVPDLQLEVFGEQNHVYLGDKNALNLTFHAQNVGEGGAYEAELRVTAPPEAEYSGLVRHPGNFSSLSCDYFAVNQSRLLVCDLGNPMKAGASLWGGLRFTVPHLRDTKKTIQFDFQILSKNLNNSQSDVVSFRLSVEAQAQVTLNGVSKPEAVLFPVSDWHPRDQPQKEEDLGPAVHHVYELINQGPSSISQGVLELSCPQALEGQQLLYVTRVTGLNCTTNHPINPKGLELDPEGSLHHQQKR
T1 sequence (P08648 895-1049 partner limits assumed): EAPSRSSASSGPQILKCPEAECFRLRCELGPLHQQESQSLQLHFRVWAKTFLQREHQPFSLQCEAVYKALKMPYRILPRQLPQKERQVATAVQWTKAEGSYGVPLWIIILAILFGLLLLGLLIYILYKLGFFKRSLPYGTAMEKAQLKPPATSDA
T1 sequence (P05556 21-798): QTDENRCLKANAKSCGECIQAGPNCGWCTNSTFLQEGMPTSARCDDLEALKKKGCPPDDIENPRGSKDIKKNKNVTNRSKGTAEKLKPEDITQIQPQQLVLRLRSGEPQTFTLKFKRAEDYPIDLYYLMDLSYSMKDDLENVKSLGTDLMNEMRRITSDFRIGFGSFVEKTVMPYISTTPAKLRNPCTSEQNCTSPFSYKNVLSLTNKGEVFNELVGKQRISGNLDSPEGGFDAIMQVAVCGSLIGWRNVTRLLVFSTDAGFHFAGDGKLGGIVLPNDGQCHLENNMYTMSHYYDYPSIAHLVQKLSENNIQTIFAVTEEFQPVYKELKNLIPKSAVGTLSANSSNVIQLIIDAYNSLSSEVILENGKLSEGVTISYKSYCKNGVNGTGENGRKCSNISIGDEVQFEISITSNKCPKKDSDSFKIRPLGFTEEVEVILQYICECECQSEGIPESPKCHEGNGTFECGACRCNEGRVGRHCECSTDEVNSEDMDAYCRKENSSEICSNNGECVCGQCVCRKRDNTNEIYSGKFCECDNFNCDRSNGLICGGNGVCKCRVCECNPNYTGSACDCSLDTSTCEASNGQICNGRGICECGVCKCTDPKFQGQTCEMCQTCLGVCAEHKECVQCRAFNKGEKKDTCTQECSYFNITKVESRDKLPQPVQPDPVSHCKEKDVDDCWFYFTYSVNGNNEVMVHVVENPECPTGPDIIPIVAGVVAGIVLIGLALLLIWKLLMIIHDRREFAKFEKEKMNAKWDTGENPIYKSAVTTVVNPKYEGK
αvβ3 integrin, sequence (P06756 31-889 limits assumed): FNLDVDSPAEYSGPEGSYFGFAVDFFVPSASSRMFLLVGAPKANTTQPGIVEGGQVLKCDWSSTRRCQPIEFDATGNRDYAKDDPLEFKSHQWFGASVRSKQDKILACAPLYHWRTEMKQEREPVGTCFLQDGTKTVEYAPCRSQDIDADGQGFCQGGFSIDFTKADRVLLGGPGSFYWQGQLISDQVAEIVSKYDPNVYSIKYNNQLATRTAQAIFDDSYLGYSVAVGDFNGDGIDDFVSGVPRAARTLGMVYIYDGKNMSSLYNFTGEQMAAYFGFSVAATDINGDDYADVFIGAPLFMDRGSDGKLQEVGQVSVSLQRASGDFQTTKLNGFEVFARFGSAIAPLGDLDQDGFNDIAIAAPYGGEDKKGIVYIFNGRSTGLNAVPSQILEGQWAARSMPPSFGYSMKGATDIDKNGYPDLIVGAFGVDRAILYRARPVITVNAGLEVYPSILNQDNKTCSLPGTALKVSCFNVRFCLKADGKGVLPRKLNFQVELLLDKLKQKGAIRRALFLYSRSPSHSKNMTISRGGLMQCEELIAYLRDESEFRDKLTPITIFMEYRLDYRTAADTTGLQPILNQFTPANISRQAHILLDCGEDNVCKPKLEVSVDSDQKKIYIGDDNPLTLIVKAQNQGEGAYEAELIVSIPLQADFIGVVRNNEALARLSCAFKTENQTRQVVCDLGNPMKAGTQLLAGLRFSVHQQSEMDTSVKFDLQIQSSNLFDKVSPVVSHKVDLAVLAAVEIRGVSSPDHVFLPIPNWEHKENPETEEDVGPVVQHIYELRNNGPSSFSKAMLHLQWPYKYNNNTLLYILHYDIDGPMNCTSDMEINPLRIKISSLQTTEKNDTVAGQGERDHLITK
αvβ3 integrin, sequence (P06756 891-1048 partner limits assumed): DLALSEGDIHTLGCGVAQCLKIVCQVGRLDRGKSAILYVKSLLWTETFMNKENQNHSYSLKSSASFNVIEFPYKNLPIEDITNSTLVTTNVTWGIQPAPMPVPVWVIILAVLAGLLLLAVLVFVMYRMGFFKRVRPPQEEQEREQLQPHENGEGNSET
αvβ3 integrin, sequence (P05106 27-788): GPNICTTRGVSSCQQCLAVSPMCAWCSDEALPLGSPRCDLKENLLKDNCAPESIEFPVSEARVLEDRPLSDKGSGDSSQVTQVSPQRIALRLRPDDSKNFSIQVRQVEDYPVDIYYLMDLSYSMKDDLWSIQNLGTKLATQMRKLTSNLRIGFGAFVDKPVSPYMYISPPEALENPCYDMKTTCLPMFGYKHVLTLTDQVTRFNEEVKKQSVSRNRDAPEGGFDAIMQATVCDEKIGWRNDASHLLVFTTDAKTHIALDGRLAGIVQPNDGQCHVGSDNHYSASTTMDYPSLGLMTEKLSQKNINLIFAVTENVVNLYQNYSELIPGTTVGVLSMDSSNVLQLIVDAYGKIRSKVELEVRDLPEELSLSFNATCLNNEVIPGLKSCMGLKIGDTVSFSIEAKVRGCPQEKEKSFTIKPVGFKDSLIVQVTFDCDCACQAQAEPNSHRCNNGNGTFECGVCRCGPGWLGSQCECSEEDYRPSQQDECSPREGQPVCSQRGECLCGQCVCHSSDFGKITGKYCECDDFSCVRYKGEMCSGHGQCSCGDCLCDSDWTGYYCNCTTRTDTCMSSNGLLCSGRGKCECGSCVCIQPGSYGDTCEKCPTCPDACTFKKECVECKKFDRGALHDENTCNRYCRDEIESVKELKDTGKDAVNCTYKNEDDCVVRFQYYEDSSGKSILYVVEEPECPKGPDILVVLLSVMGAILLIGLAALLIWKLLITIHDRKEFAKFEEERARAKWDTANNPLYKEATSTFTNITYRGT

IC50 [6]: > 1 mM | α5β1 integrin internalization by compound alone ([7]; compound 1 µM, no fibronectin): induced α5β1 internalization | EC50 [2]: 6.59 ± 0.16 µM | α5β1 behaviour (agonist/antagonist) [2, 12]: agonist
SMILES: CC1=C(C(=O)NCc2ccc(N)cc2)C(CCCc2cn(CCCNC(=O)CCC(=O)OC(C)(C)C)nn2)N(C(=O)CC(=O)O)O1 (centres unmarked) [Compound 24]
ERK1/2-phosphorylation ([8]; K562 cells not incubated with fibronectin, compound 10^−7–10^−9 M): significant concentration dependent increase

IC50 [6]: > 1 mM | effect on fibronectin-induced α5β1 integrin internalization ([7]; compound 1 µM pre-incubated before fibronectin 10 µg/mL): prevented integrin internalization | stability in bovine serum [9]: no significant degradation | IC50 [2]: 2.7 ± 0.4 nM | α5β1 behaviour (agonist/antagonist) [2, 12]: antagonist | loss of product ([10]; acidic treatment (pH=3, HCl)): 5% | loss of product ([10]; neutral conditions (pH=7)): 5% | decomposition to A ([10]; stress conditions with a large excess of base): few minutes
SMILES: CC1=C(C(=O)NCc2ccc(N)cc2)C(CCCc2cn(CCCNC(=O)OC(C)(C)C)nn2)N(C(=O)CC(=O)O)O1 (centres unmarked) [Compound 17b]
fibronectin-induced ERK1/2 phosphorylation levels ([8]; K562 cells preincubated with compound 10^−7–10^−9 M, then plated on fibronectin): significant concentration-dependent reduction

The remaining lines, values behind:

SMILES: CC1=C(C(=O)NCc2ccc(N)cc2)C(CCCc2cn(CCCNC(=S)Nc3ccc(-c4c5ccc(=O)cc-5oc5cc(O)ccc45)c(C(=O)O)c3)nn2)N(C(=O)CC(=O)O)O1 (centres unmarked) [Compound 31]
internalization [1]: not able to be internalized | IC50 [2]: 130 ± 10 nM | α5β1 behaviour (agonist/antagonist) [2, 12]: antagonist | α5β1 IC50/EC50 (IC50 for antagonists) ([2]; K562 cell adhesion to fibronectin, antagonists, also >1000 cells with behaviour not given, mean ± SD): 0.13 ± 0.01 µM | internalization [3]: not able to enter | intracellular localization / internalization [4]: localized in the cell cytoplasm | internalization ([5]; 0.1–1 μM): internalized in K562 cells in a concentration-dependent way

SMILES: Cc1onc(CCCc2cn(CCCNC(=O)OC(C)(C)C)nn2)c1C(=O)NCc1ccc(N)cc1 [B]
effect on the activity of selected integrins [11]: not active

SMILES: CC[C@@]1([C@@H]2O[C@@H]([C@H]3O[C@@](O)(CO)[C@H](C)C[C@@H]3C)C[C@@H]2C)CC[C@H]([C@]2(C)CC[C@]3(C[C@H](O)[C@@H](C)[C@@H]([C@@H](C)[C@@H](OC)[C@H](C)C(=O)O)O3)O2)O1 [monensin, reference compound]
effect on compound 31 internalization ([5]; monensin 2 µM for 2 h): significantly inhibited
